The record followed here is patent US20160075695A1, “BENZIMIDAZOLE DERIVATIVES AS BROMODOMAIN INHIBITORS” (Gilead Sciences, Inc., priority 2013, published 2016).

Type in all cases: cell-based
One assay concerns MT-4 cells. Briefly: MT-4 proliferation assay. Conditions: Homo sapiens, MT4, 120 h; Table 2; 5 days, Cell Titer Glo luminescence. The protocol:
Compounds were tested in a standardized high-throughput 384-well assay format. Each compound was serially diluted 3-fold in 100% DMSO in polypropylene 384-well plates using a Biomek FX Workstation, and 0.4 μL compound added to an assay plate containing 40 μL RPMI media. Compounds were arranged in a horizontal pattern, with 10 concentrations per compound, and 8 compounds added per plate. Due to low DMSO tolerability, the final DMSO concentration never exceeded 0.5% (v/v). Each assay plate contained 10 μM Puromycin and 0.5% DMSO in RPMI-1640 as positive and negative controls respectively. MT-4 cells (HTLV-1 transformed, human T lymphoblastoid cells, NIH Aids Reagent program) were added in volumes of 35 μL per well and 2,000 cells per well using a Biotek uFlow Workstation (Biotek, Winooski, Vt.), and the plates subsequently incubated for 5 days at 37° C. in an incubator set at 5% CO2 and 90% humidity.
After 5 days, 22 μL Cell Titer Glo (Promega) was added to the assay plates with a Biotek uFlow Workstation. Plates were subsequently placed on a Perkin Elmer Envision Plate Reader for 5 minutes before the luminescence signal was read.
On the technique in general: ATP-based viability assays read luminescence as a measure of living cells.

The next assay has as its system c-Myc in MM.1S cells. Put plainly: c-Myc down regulation assay (MSD) in MM.1S cells. Conditions: Homo sapiens, MM1.S, 24 hrs incubation. The protocol:
An enzyme linked immunosorbent assay using the Meso Scale Diagnostic (MSD) technology was used to detect levels of c-Myc produced in MM.1S cells (ATCC). MM.1S cells were cultured in RPMI-1640 media (Corning), supplemented with 10% FBS (Hyclone), 1% penicillin-streptomycin (Cellgro), 2-mercaptoethanol (Gibco) and seeded onto 384-tissue culture treated filter binding plates (Millipore) at a density of 40K cells/well containing titrations of small molecule inhibitors or DMSO (0.4%) in a volume of […] of media. After an incubation time of 24 hrs, cells were lysed (1× lysis buffer (Thermo) supplemented with protease and phosophatase inhibitor cocktail (Thermo)) and the plates centrifuged (1000 rpm, 1 min) to capture c-Myc on MSD plates coated with a monoclonal c-Myc antibody (Origene). Assay wells were washed (3× Invitrogen wash buffer) and probed with a polyclonal c-Myc antibody (Abeam) and MSD detection antibody solution in order to detect levels of c-Myc on the MSD platform. c-Myc capture was reported in pg/ml based on a standard curve using recombinant c-Myc protein (Prosci). EC50 values were calculated from the fit of the dose-response curves to a four-parameter equation. All EC50 values represent geometric mean values of a minimum of four determinations. These assays generally produced results within 3-fold of the reported mean.

The subject of a further assay is MM.1S cells. Briefly: MM.1S viability assay (CellTiter Glo). Conditions: Homo sapiens, MM1.S, 72 hr incubation, read-out: MM.1S Cell viability (EC50). The protocol:
For cell viability in the MM.1S cell line, cells were seeded onto 384-tissue culture treated plates (Greiner) at a density of 60K cells/well containing titrations of small molecule inhibitors or DMSO (0.2%). After 72 hr incubation cells were analyzed for cell viability by addition of CellTiter Glo (Promega) to the assay plates. After 15 min incubation at room temperature the signal from the viable cells was analyzed on an Envision plate reader (Perkin Elmer). EC50 values were calculated from the fit of the dose-response curves to a four-parameter equation. All EC50 values represent geometric mean values of a minimum of four determinations. These assays generally produced results within 3-fold of the reported mean.

Take `Cc1noc(C)c1-c1cc(C(O)(c2cccnn2)C2CCCO2)c2nc(C3CC3)[nH]c2c1` (single isomer, unassigned) [Compound 1020-289, (2-cyclopropyl-6-(3,5-dimethylisoxazol-4-yl)-1H-benzo[d]imidazol-4-yl)(pyridazin-3-yl)(tetrahydrofuran-2-yl)methanol]: the EC50 – broadly, the concentration giving half of the maximal effect – in the assay on MT-4 cells turned out to be 4.2 nM; in the assay with c-Myc in MM.1S cells it was 5.7 nM; with MM.1S cells it was 17.8 nM.
